Patent publication US10221139B2, “Inhibitors of histone demethylases” (Gilead Sciences, Inc., priority 2012, dated 2019)

Assays:
Format in all cases: biochemical
JMJD2A (KDM4A) = biological target: T1, JMJD2A (KDM4A) (Homo sapiens, UniProt O75164); experiment: Histone lysine demethylase AlphaLISA assay, JMJD2A; conditions: substrate BK9M3
T1 construct: 1-350; purchased BPS, Bioscience, US; host or cells: E. coli
T1 sequence (O75164 1-350): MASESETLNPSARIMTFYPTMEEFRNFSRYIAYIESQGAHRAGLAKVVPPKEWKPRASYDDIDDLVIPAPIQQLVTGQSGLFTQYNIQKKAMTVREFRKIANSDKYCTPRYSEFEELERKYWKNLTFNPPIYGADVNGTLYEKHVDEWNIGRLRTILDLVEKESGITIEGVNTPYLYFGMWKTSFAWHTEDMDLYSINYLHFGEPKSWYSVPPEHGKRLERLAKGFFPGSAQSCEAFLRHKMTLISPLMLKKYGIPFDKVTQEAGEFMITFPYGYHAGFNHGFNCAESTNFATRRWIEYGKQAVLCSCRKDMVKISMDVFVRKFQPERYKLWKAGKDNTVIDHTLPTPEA
Method: (§1) Example 2: Histone Lysine Demethylase AlphaLISA Assays for IC50 Value Determination
(§2) Assays are performed analogously to the protocol described by Perkin Elmer (Roy et al. Perkin Elmer Technical Note: AlphaLISA #12, April 2011).
(§3) Enzymes are dissolved in enzyme buffer and incubated for 10 min before 5 μL is added to 5 μL 3% DMSO solutions of compounds in enzyme buffer. Incubated for another 10 minutes, before 5 μL substrate solution is added and the reaction mixture is incubated at room temperature for the given period. 10 μL acceptor beads, suspended at given dilutions in Epigenetic Buffer (Perkin Elmer AL008) from stock, are added and the suspension is incubated 60 minutes in the dark at room temperature, before 10 μL suspension (at the given dilutions in Epigenetic Buffer) of streptavidin donor beads (Perkin Elmer 6760002) in Epigenetic Buffer is added. After incubation at room temperature in the dark the plates are read. Reaction conditions are seen in Table 2b.

JMJD3 (KDM6B) = biological target: T2, JMJD3 (KDM6B) (Homo sapiens, UniProt O15054); experiment: Histone lysine demethylase AlphaLISA assay, JMJD3; conditions: substrate BK27M3
T2 construct: 1043-end; purchased BPS; host or cells: Bac (baculovirus)
Method: as §1, §2, §3

JMJD1B (KDM3B) = biological target: T3, JMJD1B (KDM3B) (Homo sapiens, UniProt Q7LBC6); experiment: Histone lysine demethylase AlphaLISA assay, JMJD1B; conditions: substrate BK9M2
T3 construct: 842-1761; host or cells: Bac (baculovirus)
T3 sequence (Q7LBC6 842-1761): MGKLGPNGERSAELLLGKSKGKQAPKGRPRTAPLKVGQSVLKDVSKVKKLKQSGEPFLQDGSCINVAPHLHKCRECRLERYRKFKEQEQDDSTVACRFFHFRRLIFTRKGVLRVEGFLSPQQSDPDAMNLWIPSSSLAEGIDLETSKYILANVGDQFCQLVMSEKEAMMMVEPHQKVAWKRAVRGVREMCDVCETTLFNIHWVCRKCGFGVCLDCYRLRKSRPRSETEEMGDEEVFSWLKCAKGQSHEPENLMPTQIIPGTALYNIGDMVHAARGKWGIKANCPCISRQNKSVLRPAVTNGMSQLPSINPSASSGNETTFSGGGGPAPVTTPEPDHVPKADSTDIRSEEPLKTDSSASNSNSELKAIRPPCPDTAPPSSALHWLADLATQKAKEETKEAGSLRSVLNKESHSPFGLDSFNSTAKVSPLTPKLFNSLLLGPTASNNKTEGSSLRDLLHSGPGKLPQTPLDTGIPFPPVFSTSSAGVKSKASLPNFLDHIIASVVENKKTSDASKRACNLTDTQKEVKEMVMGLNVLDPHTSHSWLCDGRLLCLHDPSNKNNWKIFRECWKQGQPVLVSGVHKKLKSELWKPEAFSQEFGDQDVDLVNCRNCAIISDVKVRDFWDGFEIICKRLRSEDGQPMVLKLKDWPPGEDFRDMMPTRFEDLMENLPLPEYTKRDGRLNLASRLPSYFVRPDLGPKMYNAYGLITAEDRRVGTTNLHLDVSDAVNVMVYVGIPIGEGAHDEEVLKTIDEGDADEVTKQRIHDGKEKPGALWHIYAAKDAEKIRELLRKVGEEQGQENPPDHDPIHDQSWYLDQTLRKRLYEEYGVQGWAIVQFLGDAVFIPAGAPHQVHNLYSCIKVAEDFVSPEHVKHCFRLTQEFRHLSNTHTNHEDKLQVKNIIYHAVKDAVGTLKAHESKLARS
Method: as §1, §2, §3

GASC1 (KDM4C, JMJD2C) = biological target: T4, GASC1 (KDM4C, JMJD2C) (Homo sapiens, UniProt Q9H3R0); experiment: Histone lysine demethylase AlphaLISA assay, GASC1; conditions: substrate BK9M3
T4 construct: 1-349; host or cells: E. coli
T4 sequence (Q9H3R0 1-349): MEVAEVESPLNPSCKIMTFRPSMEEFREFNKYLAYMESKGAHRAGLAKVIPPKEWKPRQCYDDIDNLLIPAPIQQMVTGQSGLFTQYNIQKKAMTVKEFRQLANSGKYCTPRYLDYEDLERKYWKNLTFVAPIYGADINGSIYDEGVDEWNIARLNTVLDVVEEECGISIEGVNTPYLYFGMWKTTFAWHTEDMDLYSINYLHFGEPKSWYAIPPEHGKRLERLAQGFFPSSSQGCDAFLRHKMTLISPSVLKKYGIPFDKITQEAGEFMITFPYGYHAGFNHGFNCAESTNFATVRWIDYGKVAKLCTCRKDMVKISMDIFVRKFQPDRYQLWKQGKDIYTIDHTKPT
Outline: (§4)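 Enzyme was preincubated 10 min, then 10 min with compounds in 3% DMSO buffer before substrate addition; reaction ran at room temperature. AlphaLISA acceptor beads (60 min, dark) and streptavidin donor beads were added before reading for IC50.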

UTX (KDM6A) = biological target: T5, UTX (KDM6A) (Homo sapiens, UniProt O15550); experiment: Histone lysine demethylase AlphaLISA assay, UTX; conditions: substrate BK27M3
T5 construct: 919-1401; host or cells: E. coli
Outline: as §4

JMJD2B (KDM4B) = biological target: T6, JMJD2B (KDM4B) (Homo sapiens, UniProt O94953); experiment: Histone lysine demethylase AlphaLISA assay, JMJD2B; conditions: substrate BK9M3, read-out: JMUD2B IC50
T6 construct: 2-500; purchased BPS; host or cells: Bac (baculovirus)
T6 sequence (O94953 2-500): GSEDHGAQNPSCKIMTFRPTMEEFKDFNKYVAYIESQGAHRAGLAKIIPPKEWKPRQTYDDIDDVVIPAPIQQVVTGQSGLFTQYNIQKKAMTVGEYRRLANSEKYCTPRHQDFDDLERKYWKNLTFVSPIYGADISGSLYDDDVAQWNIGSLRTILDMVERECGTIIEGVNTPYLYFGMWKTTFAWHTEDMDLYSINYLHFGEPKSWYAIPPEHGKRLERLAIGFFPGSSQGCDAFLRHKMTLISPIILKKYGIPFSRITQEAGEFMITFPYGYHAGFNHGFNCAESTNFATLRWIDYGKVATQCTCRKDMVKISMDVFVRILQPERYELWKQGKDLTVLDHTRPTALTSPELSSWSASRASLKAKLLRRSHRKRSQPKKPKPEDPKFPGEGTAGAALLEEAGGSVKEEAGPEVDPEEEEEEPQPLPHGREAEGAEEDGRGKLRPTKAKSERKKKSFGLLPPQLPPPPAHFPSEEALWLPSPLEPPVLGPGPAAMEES
Method: as §1, §2, §3

PLU1 (KDM5B) = biological target: T7, PLU1 (KDM5B) (Homo sapiens, UniProt Q9UGL1); experiment: Histone lysine demethylase AlphaLISA assay, PLU1; conditions: substrate H3K4M3B
T7 construct: 1-809; host or cells: E. coli
T7 sequence (Q9UGL1 1-809): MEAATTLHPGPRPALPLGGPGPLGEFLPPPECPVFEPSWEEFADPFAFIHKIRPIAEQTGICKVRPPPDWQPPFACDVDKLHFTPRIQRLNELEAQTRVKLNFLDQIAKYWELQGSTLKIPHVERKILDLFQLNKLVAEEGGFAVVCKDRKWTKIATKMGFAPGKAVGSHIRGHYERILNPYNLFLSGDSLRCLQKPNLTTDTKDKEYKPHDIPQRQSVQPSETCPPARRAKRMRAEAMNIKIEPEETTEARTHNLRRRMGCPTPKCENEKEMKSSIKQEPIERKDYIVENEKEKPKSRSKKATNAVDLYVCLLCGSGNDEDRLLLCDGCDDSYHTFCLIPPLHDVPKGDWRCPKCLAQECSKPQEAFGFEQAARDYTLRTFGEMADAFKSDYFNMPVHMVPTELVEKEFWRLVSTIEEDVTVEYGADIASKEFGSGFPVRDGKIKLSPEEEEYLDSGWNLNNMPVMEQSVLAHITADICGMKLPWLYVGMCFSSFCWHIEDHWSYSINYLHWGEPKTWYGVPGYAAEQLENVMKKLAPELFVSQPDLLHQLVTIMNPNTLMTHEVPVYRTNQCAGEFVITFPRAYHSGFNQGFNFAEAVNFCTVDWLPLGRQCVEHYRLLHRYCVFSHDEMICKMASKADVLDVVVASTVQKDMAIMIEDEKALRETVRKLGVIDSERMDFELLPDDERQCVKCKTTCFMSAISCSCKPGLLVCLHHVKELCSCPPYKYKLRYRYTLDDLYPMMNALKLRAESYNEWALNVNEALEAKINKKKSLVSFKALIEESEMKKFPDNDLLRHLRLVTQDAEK
Outline: as §4

PHF8 (KDM7) = biological target: T8, PHF8 (KDM7) (Homo sapiens, UniProt Q9UPP1); experiment: Histone lysine demethylase AlphaLISA assay, PHF8; conditions: substrate BK9M2
T8 construct: KDM7 (PHF8); BRIC; 1-1322; Bac
Method: as §1, §2, §3

FBXL10 (KDM2B) = biological target: T9, FBXL10 (KDM2B) (Homo sapiens, UniProt Q8NHM5); experiment: Histone lysine demethylase AlphaLISA assay, FBXL10; conditions: substrate BH3K36M2
T9 construct: 1-650; purchased BPS, Bioscience, US; host or cells: Bac (baculovirus)
T9 sequence (Q8NHM5 1-650): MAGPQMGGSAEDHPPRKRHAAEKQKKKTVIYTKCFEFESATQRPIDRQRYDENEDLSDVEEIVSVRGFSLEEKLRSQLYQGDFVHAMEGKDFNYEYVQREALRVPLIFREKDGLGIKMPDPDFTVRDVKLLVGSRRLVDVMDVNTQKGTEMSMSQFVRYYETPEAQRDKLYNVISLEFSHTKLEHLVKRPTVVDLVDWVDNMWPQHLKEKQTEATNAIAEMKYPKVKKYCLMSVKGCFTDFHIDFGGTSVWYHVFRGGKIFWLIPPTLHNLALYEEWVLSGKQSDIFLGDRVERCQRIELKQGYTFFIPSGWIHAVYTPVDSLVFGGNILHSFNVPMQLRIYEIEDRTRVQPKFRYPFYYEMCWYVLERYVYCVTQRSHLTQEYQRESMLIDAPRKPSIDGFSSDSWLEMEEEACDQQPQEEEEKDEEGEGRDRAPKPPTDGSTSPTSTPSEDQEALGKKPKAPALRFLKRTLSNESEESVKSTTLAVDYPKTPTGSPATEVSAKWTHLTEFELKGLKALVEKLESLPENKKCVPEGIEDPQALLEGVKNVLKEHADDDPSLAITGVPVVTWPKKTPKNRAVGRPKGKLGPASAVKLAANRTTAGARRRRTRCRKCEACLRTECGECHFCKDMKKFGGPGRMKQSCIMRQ
Method: as §1, §2, §3

JARID1C (KDM5C) = biological target: T10, JARID1C (KDM5C) (Homo sapiens, UniProt P41229); experiment: Histone lysine demethylase AlphaLISA assay, JARID1C; conditions: substrate H3K4M3B
T10 construct: 2-1560; purchased BPS; host or cells: Bac (baculovirus)
Method: as §1, §2, §3

T10 sequence (P41229 2-1560): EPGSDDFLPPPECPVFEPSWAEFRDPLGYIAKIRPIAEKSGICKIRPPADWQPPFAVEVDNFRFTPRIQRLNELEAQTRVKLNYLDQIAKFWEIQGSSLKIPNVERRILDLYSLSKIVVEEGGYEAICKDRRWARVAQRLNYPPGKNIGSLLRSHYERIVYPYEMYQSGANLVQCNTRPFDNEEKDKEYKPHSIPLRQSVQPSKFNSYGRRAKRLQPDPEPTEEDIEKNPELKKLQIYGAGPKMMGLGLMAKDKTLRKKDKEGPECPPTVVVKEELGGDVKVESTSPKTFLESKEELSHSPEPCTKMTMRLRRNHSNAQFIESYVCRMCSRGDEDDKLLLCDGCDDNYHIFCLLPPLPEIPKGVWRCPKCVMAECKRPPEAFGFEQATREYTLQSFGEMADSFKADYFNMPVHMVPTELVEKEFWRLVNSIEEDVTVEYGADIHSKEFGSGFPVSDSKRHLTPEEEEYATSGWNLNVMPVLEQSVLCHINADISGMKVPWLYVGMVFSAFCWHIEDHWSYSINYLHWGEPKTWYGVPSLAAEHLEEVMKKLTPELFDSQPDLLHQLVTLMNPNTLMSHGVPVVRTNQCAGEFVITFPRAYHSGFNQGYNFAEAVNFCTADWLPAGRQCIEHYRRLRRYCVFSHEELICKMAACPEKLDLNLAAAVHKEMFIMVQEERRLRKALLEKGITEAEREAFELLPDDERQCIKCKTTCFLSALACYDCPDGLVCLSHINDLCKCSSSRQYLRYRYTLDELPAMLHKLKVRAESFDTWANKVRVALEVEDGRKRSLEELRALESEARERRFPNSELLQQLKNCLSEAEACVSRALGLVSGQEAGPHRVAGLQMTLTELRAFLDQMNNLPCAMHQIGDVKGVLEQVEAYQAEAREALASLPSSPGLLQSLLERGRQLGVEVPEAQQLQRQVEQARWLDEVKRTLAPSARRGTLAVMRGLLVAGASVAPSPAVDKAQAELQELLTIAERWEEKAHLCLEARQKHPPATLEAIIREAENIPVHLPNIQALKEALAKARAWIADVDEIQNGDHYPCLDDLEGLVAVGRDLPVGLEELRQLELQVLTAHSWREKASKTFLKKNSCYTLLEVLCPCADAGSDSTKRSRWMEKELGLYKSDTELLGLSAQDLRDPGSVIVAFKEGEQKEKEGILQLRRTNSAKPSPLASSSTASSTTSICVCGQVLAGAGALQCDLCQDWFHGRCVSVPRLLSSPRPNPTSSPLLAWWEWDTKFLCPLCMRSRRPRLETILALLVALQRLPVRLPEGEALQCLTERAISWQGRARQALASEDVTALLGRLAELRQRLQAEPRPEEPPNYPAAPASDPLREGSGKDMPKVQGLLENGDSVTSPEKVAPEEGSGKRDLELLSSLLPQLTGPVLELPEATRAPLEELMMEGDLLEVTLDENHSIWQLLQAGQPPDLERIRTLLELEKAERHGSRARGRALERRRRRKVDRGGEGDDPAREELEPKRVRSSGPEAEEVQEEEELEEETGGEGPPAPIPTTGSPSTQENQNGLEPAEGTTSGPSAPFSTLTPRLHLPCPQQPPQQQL
T8 sequence (Q9UPP1 37-477 limits assumed): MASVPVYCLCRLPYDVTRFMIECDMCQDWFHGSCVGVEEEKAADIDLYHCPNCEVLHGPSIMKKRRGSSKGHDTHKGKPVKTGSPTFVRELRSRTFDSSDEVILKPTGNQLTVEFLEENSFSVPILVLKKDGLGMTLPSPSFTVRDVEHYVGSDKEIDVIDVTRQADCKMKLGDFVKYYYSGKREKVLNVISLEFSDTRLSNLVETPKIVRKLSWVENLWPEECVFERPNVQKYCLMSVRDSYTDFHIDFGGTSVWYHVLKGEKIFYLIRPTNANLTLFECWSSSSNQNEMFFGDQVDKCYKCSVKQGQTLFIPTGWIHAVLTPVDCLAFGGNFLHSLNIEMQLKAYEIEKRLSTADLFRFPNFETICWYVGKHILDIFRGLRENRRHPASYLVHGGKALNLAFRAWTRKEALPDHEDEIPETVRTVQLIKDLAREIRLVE
T5 sequence (O15550 919-1401): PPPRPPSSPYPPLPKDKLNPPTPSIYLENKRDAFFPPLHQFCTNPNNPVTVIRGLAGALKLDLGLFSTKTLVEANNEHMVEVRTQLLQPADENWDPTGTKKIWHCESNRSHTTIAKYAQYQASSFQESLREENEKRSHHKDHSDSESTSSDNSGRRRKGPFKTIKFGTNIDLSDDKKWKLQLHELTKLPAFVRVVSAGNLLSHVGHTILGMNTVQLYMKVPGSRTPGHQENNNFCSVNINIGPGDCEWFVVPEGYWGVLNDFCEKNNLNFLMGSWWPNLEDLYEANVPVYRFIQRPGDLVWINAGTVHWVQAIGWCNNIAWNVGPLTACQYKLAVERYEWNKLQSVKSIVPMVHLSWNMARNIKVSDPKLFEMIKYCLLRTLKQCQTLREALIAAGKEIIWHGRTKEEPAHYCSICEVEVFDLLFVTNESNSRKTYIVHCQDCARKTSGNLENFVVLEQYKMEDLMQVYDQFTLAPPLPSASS
T2 sequence (O15054 1043-1682 isoform O15054-1 limits assumed): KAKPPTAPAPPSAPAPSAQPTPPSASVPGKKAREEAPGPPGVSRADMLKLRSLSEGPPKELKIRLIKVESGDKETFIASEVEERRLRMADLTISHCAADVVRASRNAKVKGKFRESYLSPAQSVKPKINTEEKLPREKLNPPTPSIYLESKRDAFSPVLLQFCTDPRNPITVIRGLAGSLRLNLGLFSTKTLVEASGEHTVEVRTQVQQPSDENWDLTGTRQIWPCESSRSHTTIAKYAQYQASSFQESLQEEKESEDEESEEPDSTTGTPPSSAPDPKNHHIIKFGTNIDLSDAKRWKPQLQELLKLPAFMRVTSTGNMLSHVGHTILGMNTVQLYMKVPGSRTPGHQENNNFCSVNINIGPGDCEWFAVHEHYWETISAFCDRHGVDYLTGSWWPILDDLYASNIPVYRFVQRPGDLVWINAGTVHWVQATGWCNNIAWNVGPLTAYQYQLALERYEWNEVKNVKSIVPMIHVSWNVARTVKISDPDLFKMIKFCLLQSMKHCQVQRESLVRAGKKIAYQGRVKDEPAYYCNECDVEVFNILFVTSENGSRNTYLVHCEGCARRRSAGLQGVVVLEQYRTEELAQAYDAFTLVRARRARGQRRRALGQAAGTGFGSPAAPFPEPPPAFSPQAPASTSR

| IC50 (JMJD2A (KDM4A)) | IC50 (JMJD3 (KDM6B)) | IC50 (JMJD1B (KDM3B)) | IC50 (GASC1 (KDM4C, JMJD2C)) | IC50 (UTX (KDM6A)) | IC50 (JMJD2B (KDM4B)) | IC50 (PLU1 (KDM5B)) | IC50 (PHF8 (KDM7)) | IC50 (FBXL10 (KDM2B)) | IC50 (JARID1C (KDM5C)) | SMILES |
| --- | --- | --- | --- | --- | --- | --- | --- | --- | --- | --- |
| < 100 nM | ≥ 1000 nM | ≥ 1000 nM | < 100 nM | ≥ 1000 nM | < 100 nM |  |  |  |  | CN(C)CCNCc1cc(C(=O)O)ccn1 [#2, 2-({[2-(dimethylamino)ethyl]amino}methyl)pyridine-4-carboxylic acid] |
| ≥ 1000 nM | ≥ 1000 nM | ≥ 1000 nM | ≥ 1000 nM | ≥ 1000 nM | ≥ 1000 nM | < 100 nM |  |  |  | COc1ccc(CNCc2cc(C(=O)O)ccn2)c(OC)c1 [#11, 2-({[(2,4-dimethoxyphenyl)methyl]amino}methyl)pyridine-4-carboxylic acid] |
| 100 to 1000 nM | ≥ 1000 nM | ≥ 1000 nM | ≥ 1000 nM | ≥ 1000 nM | 100 to 1000 nM |  | ≥ 1000 nM | ≥ 1000 nM |  | O=C(O)c1ccnc(CN[C@@H]2CCN(CCCc3ccccc3)C2)c1 [#28, 2-({[(3R)-1-(3-phenylpropyl)pyrrolidin-3-yl]amino}methyl)pyridine-4-carboxylic acid] |
| < 100 nM |  | ≥ 1000 nM | < 100 nM |  | < 100 nM |  | 100 to 1000 nM | < 100 nM | < 100 nM | CN(CCCCN(Cc1ccccc1)C1CC1)C(=O)CNCc1cc(C(=O)O)ccn1 [#44, 2-({[({4-[benzyl(cyclopropyl)amino]butyl}(methyl)carbamoyl)methyl]amino}methyl)pyridine-4-carboxylic acid] |
| 100 to 1000 nM | ≥ 1000 nM |  | 100 to 1000 nM | ≥ 1000 nM | < 100 nM | < 100 nM | ≥ 1000 nM |  | < 100 nM | O=C(O)c1ccnc(CNCCCN2CCCC2)c1 [#46, 2-({[3-(pyrrolidin-1-yl)propyl]amino}methyl)pyridine-4-carboxylic acid] |
| ≥ 1000 nM | ≥ 1000 nM |  | < 100 nM | ≥ 1000 nM | < 100 nM | < 100 nM | ≥ 1000 nM |  | < 100 nM | CCN(CC)CCCCNCc1cc(C(=O)O)ccn1 [#48, 2-({[4-(diethylamino)butyl]amino}methyl)pyridine-4-carboxylic acid] |
